PubChem BioAssay (NCI)
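A five-concentration, 48-hour dose response in 96-well plates underlies each endpoint, interpolated linearly between surrounding concentrations. GI50: concentration for 50% inhibition of growth. TGI marks complete inhibition of growth.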

Key:
Test in all cases: growth of human tumour cells (NCI), 48 h
786-0 renal = tested on: 786-0 renal
A498 renal = tested on: A498 renal
A549 NSCLC = tested on: A549 NSCLC
ACHN renal = tested on: ACHN renal
BT-549 breast = tested on: BT-549 breast
CAKI-1 renal = tested on: CAKI-1 renal
CCRF-CEM leukemia = tested on: CCRF-CEM leukemia
COLO 205 colon = tested on: COLO 205 colon
DU-145 prostate = tested on: DU-145 prostate
EKVX NSCLC = tested on: EKVX NSCLC
HCC-2998 colon = tested on: HCC-2998 colon
HCT-116 colon = tested on: HCT-116 colon
HCT-15 colon = tested on: HCT-15 colon
HL-60(TB) leukemia = tested on: HL-60(TB) leukemia
HOP-62 NSCLC = tested on: HOP-62 NSCLC
HOP-92 NSCLC = tested on: HOP-92 NSCLC
HS 578T breast = tested on: HS 578T breast
HT29 colon = tested on: HT29 colon
IGROV1 ovarian = tested on: IGROV1 ovarian
K-562 leukemia = tested on: K-562 leukemia
KM12 colon = tested on: KM12 colon
LOX IMVI melanoma = tested on: LOX IMVI melanoma
M14 melanoma = tested on: M14 melanoma
MALME-3M melanoma = tested on: MALME-3M melanoma
MCF7 breast = tested on: MCF7 breast
MDA-MB-231 breast = tested on: MDA-MB-231 breast
MDA-MB-435 = tested on: MDA-MB-435
MOLT-4 leukemia = tested on: MOLT-4 leukemia
NCI-H226 lung = tested on: NCI-H226 lung

Compound: C[C@@H](NC(=O)[C@@H](CC(=O)N1CCC(N2CCCCC2)CC1)N1C(=O)[C@@H](N2C(=O)OC[C@@H]2c2ccccc2)[C@H]1/C=C/c1cccc(Cl)c1)c1ccccc1
- GI50 (786-0 renal): 1.88 µM
- TGI (786-0 renal): 3.95 µM
- GI50 (A498 renal): 13.2 µM
- TGI (A498 renal): 27.7 µM
- GI50 (A549 NSCLC): 4.34 µM
- TGI (A549 NSCLC): 15.6 µM
- GI50 (ACHN renal): 2.31 µM
- TGI (ACHN renal): 6.22 µM
- GI50 (BT-549 breast): 5.14 µM
- TGI (BT-549 breast): 18 µM
- GI50 (CAKI-1 renal): 1.89 µM
- TGI (CAKI-1 renal): 4.17 µM
- GI50 (CCRF-CEM leukemia): 2.73 µM
- TGI (CCRF-CEM leukemia): 7.93 µM
- GI50 (COLO 205 colon): 1.8 µM
- TGI (COLO 205 colon): 4.24 µM
- GI50 (DU-145 prostate): 4.03 µM
- TGI (DU-145 prostate): 14.3 µM
- GI50 (EKVX NSCLC): 3.79 µM
- TGI (EKVX NSCLC): 18 µM
- GI50 (HCC-2998 colon): 1.99 µM
- TGI (HCC-2998 colon): 4.08 µM
- GI50 (HCT-116 colon): 1.97 µM
- TGI (HCT-116 colon): 4.11 µM
- GI50 (HCT-15 colon): 2.56 µM
- TGI (HCT-15 colon): 7.74 µM
- GI50 (HL-60(TB) leukemia): 2.21 µM
- TGI (HL-60(TB) leukemia): 4.87 µM
- GI50 (HOP-62 NSCLC): 4.16 µM
- TGI (HOP-62 NSCLC): 18.4 µM
- GI50 (HOP-92 NSCLC): 3.64 µM
- TGI (HOP-92 NSCLC): 16.8 µM
- GI50 (HS 578T breast): 2.77 µM
- TGI (HS 578T breast): 7.16 µM
- GI50 (HT29 colon): 2.78 µM
- TGI (HT29 colon): 7.95 µM
- GI50 (IGROV1 ovarian): 4.62 µM
- TGI (IGROV1 ovarian): 19.2 µM
- GI50 (K-562 leukemia): 2.63 µM
- TGI (K-562 leukemia): 5.47 µM
- GI50 (KM12 colon): 2.72 µM
- TGI (KM12 colon): 9.63 µM
- GI50 (LOX IMVI melanoma): 1.46 µM
- TGI (LOX IMVI melanoma): 3.06 µM
- GI50 (M14 melanoma): 1.75 µM
- TGI (M14 melanoma): 3.37 µM
- GI50 (MALME-3M melanoma): 1.68 µM
- TGI (MALME-3M melanoma): 3.3 µM
- GI50 (MCF7 breast): 2.04 µM
- TGI (MCF7 breast): 5.36 µM
- GI50 (MDA-MB-231 breast): 1.9 µM
- TGI (MDA-MB-231 breast): 3.87 µM
- GI50 (MDA-MB-435): 1.64 µM
- TGI (MDA-MB-435): 3.17 µM
- GI50 (MOLT-4 leukemia): 3.2 µM
- TGI (MOLT-4 leukemia): 10.7 µM
- GI50 (NCI-H226 lung): 14.8 µM
- TGI (NCI-H226 lung): 31.2 µM
